Patent US10480032B2, “Use of EI24 gene” (UNIVERSITY-INDUSTRY FOUNDATION, YONSEI UNIVERSITY, priority 2016, dated 2019)

Tested on: PC9-GR cells expressing exogenous EI24 (9GR-O/E)
Experiment: MTT assay in gefitinib-resistant PC9-GR cells over-expressing EI24
Type: cell-based, human
Details: 20 μM gefitinib, ectopic expression of EI24 in PC9-GR, FIG. 3
Experimental: A PC9 EGFR-mutant NSCLC cell line and its gefitinib-resistant derivative (PC9-GR) are described in a document by S. M. Kim et al. (Mol. Cancer Ther. vol. 11, pp. 2254-2264(2012)). All cells were cultured in an RPMI 1640 medium supplemented with 10% […]. A human EI24-overexpressing cell line and a control cell line were established by transfection with a plasmid including FLAG-tagged EI24 and the corresponding empty vector (pcDNA3.1), respectively. Human EI24-knockdown cell lines were established using a method described in a document by J. M. Choi et al. (Oncotarget, vol. 4, pp. 2383-2396(2013)). The shRNA sequences are as follows:
Cells were seeded at a density of 3×10^4 cells/well in a 96-well culture plate and incubated for 24 hours. The cells were exposed to drugs for 48 hours, and 0.4 mg/ml MTT was added until reaching a mid-height of each well. After incubating at 37° C. for 4 hours, formazan crystals in viable cells were solubilized with 100 μl of dimethyl sulfoxide (DMSO). The optical density of the formazan product was read at 590 nm on a microreader (Bio-Rad). All experiments were repeated three times.
In addition, the EI24 gene was over-expressed in a gefitinib-resistant cell line (PC9-GR) among PC9 cell lines and gefitinib was added thereto, and EI24 expression and apoptosis were measured through immunoblotting analysis and MTT assay, respectively. […]

For COc1cc2ncnc(Nc3ccc(F)c(Cl)c3)c2cc1OCCCN1CCOCC1 [gefitinib], the cell viability was “up to 18%”.
